Data set [1] in a line: Cytotoxicity against mouse peritoneal macrophages assessed as reduction in cell viability incubated for 24 hrs by Cell titer-blue assay. Type of data set: toxicity, cell-based, Peritoneal macrophage.
Data set [2] concerns the target Keap1/Nrf2 (Homo sapiens) (UniProt Q16236+Q14145). In words: Binding affinity to human Keap1-Nrf2 protein-protein interaction assessed as dissociation constant (Kd2) incubated for 60 mins by fluorescent polarization assay.
Data set [3] deals with Peritoneal macrophage. Description: Antiinflammatory activity in mouse peritoneal macrophages assessed as fold reduction in LPS-induced TNFalpha level at 10 uM incubated for 4 hrs by ELISA method. The data set is classed as functional.
The subject of data set [4] is Peritoneal macrophage. In words: Antiinflammatory activity in mouse peritoneal macrophages assessed as reduction in LPS-induced IL6 level at 10 uM incubated for 4 hrs by ELISA method. Type of data set: functional, cell-based.
Data set [5] can be described thus: Aqueous solubility of the compound in PBS at pH 7 at 2 mg incubated for 24 hrs by HPLC-UV analysis. Type of data set: physicochemical.
Data set [6] is described as follows: Aqueous solubility of the compound in PBS at pH 2 at 2 mg incubated for 24 hrs by HPLC-UV analysis. Type of data set: physicochemical.
The nature of data set [7]: Aqueous solubility of the compound in PBS at pH 7.4 at 2 mg incubated for 24 hrs by HPLC-UV analysis. The data set is classed as physicochemical.

The values below come from ChEMBL document CHEMBL5338809, “Fragment-Based Discovery of Azocyclic Alkyl Naphthalenesulfonamides as Keap1-Nrf2 Inhibitors for Acute Lung Injury Treatment” (J Med Chem, 2023).

Molecules are shown by their SMILES. The source made the active and inactive calls. The rule behind the calls is not given here.

Sequence of Keap1/Nrf2 (Homo sapiens) (Q14145 whole entry, looked up): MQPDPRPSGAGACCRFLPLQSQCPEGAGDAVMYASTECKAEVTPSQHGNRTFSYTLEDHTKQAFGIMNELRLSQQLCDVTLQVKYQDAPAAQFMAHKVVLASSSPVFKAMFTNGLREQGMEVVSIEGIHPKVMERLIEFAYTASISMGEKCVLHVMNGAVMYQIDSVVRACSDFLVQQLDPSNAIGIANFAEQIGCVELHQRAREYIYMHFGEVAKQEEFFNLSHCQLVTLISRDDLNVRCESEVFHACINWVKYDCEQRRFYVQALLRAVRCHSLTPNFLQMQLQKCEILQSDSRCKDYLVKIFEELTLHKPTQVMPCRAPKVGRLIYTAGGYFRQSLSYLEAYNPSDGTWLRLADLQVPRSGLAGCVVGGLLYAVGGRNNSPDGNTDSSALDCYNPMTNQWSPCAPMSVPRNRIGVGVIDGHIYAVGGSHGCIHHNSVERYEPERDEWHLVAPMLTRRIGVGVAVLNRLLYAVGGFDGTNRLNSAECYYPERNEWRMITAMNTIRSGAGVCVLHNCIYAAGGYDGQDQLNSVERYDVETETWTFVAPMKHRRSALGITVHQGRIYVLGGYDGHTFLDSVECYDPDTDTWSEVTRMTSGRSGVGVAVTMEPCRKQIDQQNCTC
Sequence of Keap1/Nrf2 (Homo sapiens) (Q16236 whole entry, looked up): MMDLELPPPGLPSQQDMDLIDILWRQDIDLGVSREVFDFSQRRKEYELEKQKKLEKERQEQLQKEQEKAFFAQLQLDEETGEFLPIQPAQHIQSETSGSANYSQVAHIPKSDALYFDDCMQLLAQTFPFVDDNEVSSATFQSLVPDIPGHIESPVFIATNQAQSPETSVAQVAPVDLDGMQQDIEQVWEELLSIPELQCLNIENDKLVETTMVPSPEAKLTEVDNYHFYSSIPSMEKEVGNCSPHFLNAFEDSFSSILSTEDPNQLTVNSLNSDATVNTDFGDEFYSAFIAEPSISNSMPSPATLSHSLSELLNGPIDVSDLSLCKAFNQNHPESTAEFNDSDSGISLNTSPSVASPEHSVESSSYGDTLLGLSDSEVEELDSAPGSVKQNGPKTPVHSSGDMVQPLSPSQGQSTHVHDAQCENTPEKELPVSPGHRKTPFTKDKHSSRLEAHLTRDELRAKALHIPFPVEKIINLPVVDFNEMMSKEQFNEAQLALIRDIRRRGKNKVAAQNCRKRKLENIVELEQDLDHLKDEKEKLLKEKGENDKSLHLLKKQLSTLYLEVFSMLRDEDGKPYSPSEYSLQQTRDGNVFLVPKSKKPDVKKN

For `COc1ccc(S(=O)(=O)N(CC(N)=O)c2ccc(N(CC(N)=O)S(=O)(=O)c3ccc(NC(=O)[C@@H](N)C(C)C)cc3)c3ccccc23)cc1`, the CC50 at 24 h in data set [1] is more than 100 µM. Further, the K in data set [2] worked out at 400 nM. Besides, the “fold change (FC)” value in data set [3] is on record as “<=0.5”.
On the same counts, the results for `COCC(=O)Nc1ccc(S(=O)(=O)N(CC(N)=O)c2ccc(N(CC(N)=O)S(=O)(=O)c3ccc(OC)cc3)c3ccccc23)cc1` are more than 100 µM, 550 nM and “<=0.5”.
On to `CNCC(=O)Nc1ccc(S(=O)(=O)N(CC(N)=O)c2ccc(N(CC(N)=O)S(=O)(=O)c3ccc(OC)cc3)c3ccccc23)cc1`, for which, in data set [4], the result was Active. In addition, the CC50 at 24 h in data set [1] was more than 100 µM. Besides, in data set [2], the K was 250 nM. Moreover, the “fold change (FC)” value in data set [3] is “<=0.5”.
Turning to `COC[C@@H](N)C(=O)Nc1ccc(S(=O)(=O)N(CC(N)=O)c2ccc(N(CC(N)=O)S(=O)(=O)c3ccc(OC)cc3)c3ccccc23)cc1`, in data set [1], the CC50 at 24 h was more than 100 µM. The K in data set [2] amounted to 280 nM. For the same compound, the “fold change (FC)” value in data set [3] was “<=0.5”.
The like results for `COc1ccc(S(=O)(=O)N(CC(N)=O)c2ccc(N(CC(N)=O)S(=O)(=O)c3ccc(NC(=O)CN)cc3)c3ccccc23)cc1` were, in that order, more than 100 µM, 250 nM and “<=0.5”.
With `COc1ccc(S(=O)(=O)N(CC(N)=O)c2ccc(N(CC(N)=O)S(=O)(=O)c3ccc(NC(=O)[C@H]4CCN4)cc3)c3ccccc23)cc1.O=C(O)CCC(=O)O`, the solubility at 24 h in data set [5] turned out to be 60.6 µg/mL; in data set [6] it was 145 µg/mL; in data set [7] it was 65.6 µg/mL.
Take `COc1ccc(S(=O)(=O)N(CC(N)=O)c2ccc(N(CC(N)=O)S(=O)(=O)c3ccc(NC(=O)[C@H]4CCCNC4)cc3)c3ccccc23)cc1`: the half-maximal cytotoxic concentration (CC50) at 24 h in data set [1] is more than 100 µM. Besides, the K in data set [2] is 400 nM. Besides, the “fold change (FC)” value in data set [3] is recorded as “<=0.5”.
With `CCC[C@@H](N)C(=O)Nc1ccc(S(=O)(=O)N(CC(N)=O)c2ccc(N(CC(N)=O)S(=O)(=O)c3ccc(OC)cc3)c3ccccc23)cc1`, the CC50 at 24 h in data set [1] is more than 100 µM. The K in data set [2] turned out to be 590 nM. The “fold change (FC)” value in data set [3] is on record as “<=0.5”.
For `CC[C@@H](N)C(=O)Nc1ccc(S(=O)(=O)N(CC(N)=O)c2ccc(N(CC(N)=O)S(=O)(=O)c3ccc(OC)cc3)c3ccccc23)cc1`, the result in data set [4] was Active. Also, in data set [1], the CC50 at 24 h was more than 100 µM. Further, the K in data set [2] was 320 nM. For the same compound, in data set [3], the “fold change (FC)” value is “<=0.5”.
On the same counts, the results for `COc1ccc(S(=O)(=O)N(CC(N)=O)c2ccc(N(CC(N)=O)S(=O)(=O)c3ccc(NC(=O)[C@@H](C)N)cc3)c3ccccc23)cc1` are “Active”, more than 100 µM, 230 nM and “<=0.5”.
Turning to `COc1ccc(S(=O)(=O)N(CC(N)=O)c2ccc(N(CC(N)=O)S(=O)(=O)c3ccc(NC(=O)C4CCCNC4)cc3)c3ccccc23)cc1` (centres undefined), in data set [1], the CC50 at 24 h is more than 100 µM. Moreover, the K in data set [2] was found to be 430 nM. Also, the “fold change (FC)” value in data set [3] is on record as “<=0.5”.
Take `COc1ccc(S(=O)(=O)N(CC(N)=O)c2ccc(N(CC(N)=O)S(=O)(=O)c3ccc(NC(=O)[C@@H]4CCCN4)cc3)c3ccccc23)cc1`: the result in data set [4] was Active. In addition, the CC50 at 24 h in data set [1] was more than 100 µM. For the same compound, the K in data set [2] stood at 270 nM. The “fold change (FC)” value in data set [3] was “<=0.5”.
With `COc1ccc(S(=O)(=O)N(CC(N)=O)c2ccc(N(CC(N)=O)S(=O)(=O)c3ccc(NC(=O)C4CCNC4)cc3)c3ccccc23)cc1` (centres undefined), the result in data set [4] was Active. Also, the CC50 at 24 h in data set [1] is more than 100 µM. The K in data set [2] stood at 280 nM. Besides, the “fold change (FC)” value in data set [3] was “<=0.5”.
As for `COc1ccc(S(=O)(=O)N(CC(N)=O)c2ccc(N(CC(N)=O)S(=O)(=O)c3ccc(NC(=O)[C@H]4CCN4)cc3)c3ccccc23)cc1.O=C(O)/C=C\C(=O)O`, the solubility at 24 h in data set [5] stood at 32.3 µg/mL; in data set [6], 46.3 µg/mL; in data set [7], 34.7 µg/mL.
As to `COc1ccc(S(=O)(=O)N(CC(N)=O)c2ccc(N(CC(N)=O)S(=O)(=O)c3ccc(NC(=O)CCCN)cc3)c3ccccc23)cc1`, the CC50 at 24 h in data set [1] is more than 100 µM. In data set [2], the K was found to be 630 nM. Moreover, in data set [3], the “fold change (FC)” value is listed as “<=0.5”.
As for `Br.COc1ccc(S(=O)(=O)N(CC(N)=O)c2ccc(N(CC(N)=O)S(=O)(=O)c3ccc(NC(=O)[C@H]4CCN4)cc3)c3ccccc23)cc1`, the results for the solubility at 24 h in data set [5], in data set [6] and in data set [7] were 256 µg/mL, 672 µg/mL and 137 µg/mL, respectively.
Consider `COc1ccc(S(=O)(=O)N(CC(N)=O)c2ccc(N(CC(N)=O)S(=O)(=O)c3ccc(NC(=O)[C@@H]4CCNC4)cc3)c3ccccc23)cc1`, for which, in data set [4], the outcome was Active. The CC50 at 24 h in data set [1] is more than 100 µM. For the same compound, the K in data set [2] turned out to be 240 nM. In addition, the “fold change (FC)” value in data set [3] is “<=0.5”.
With `CC(=O)O.COc1ccc(S(=O)(=O)N(CC(N)=O)c2ccc(N(CC(N)=O)S(=O)(=O)c3ccc(NC(=O)[C@H]4CCN4)cc3)c3ccccc23)cc1`, the solubility at 24 h in data set [5] was determined as 162 µg/mL; in data set [6], 311 µg/mL; in data set [7], 160 µg/mL.
For the compound `COc1ccc(S(=O)(=O)N(CC(N)=O)c2ccc(N(CC(N)=O)S(=O)(=O)c3ccc(NC(=O)CCCCN)cc3)c3ccccc23)cc1`, the CC50 at 24 h in data set [1] is more than 100 µM. Also, in data set [2], the K was found to be 270 nM. In data set [3], the “fold change (FC)” value was “<=0.5”.
On the same counts, the results for `COc1ccc(S(=O)(=O)N(CC(N)=O)c2ccc(N(CC(N)=O)S(=O)(=O)c3ccc(NC(=O)[C@H](N)Cc4ccccc4)cc3)c3ccccc23)cc1` are more than 100 µM, 1170 nM and “<=0.5”.
On the same counts, the results for `CC[C@H](N)C(=O)Nc1ccc(S(=O)(=O)N(CC(N)=O)c2ccc(N(CC(N)=O)S(=O)(=O)c3ccc(OC)cc3)c3ccccc23)cc1` are more than 100 µM, 530 nM and “<=0.5”.
Regarding `COc1ccc(S(=O)(=O)N(CC(N)=O)c2ccc(N(CC(N)=O)S(=O)(=O)c3ccc(NC(=O)[C@H]4CCCN4)cc3)c3ccccc23)cc1`, in data set [4], the result was Active. Also, the cytotoxic concentration (CC50) at 24 h in data set [1] is more than 100 µM. Further, the K in data set [2] amounted to 300 nM. The “fold change (FC)” value in data set [3] is on record as “<=0.5”.
Take `COc1ccc(S(=O)(=O)N(CC(N)=O)c2ccc(N(CC(N)=O)S(=O)(=O)c3ccc(NC(=O)[C@@H]4CCCNC4)cc3)c3ccccc23)cc1`: the result in data set [4] was Active. Besides, the CC50 at 24 h in data set [1] was more than 100 µM. The K in data set [2] was 270 nM. For the same compound, in data set [3], the “fold change (FC)” value is “<=0.5”.
The like results for `COC[C@H](N)C(=O)Nc1ccc(S(=O)(=O)N(CC(N)=O)c2ccc(N(CC(N)=O)S(=O)(=O)c3ccc(OC)cc3)c3ccccc23)cc1` were, in that order, “Active”, more than 100 µM, 330 nM and “<=0.5”.
Turning to `COc1ccc(S(=O)(=O)N(CC(N)=O)c2ccc(N(CC(N)=O)S(=O)(=O)c3ccc(NC(=O)[C@H]4CCN4)cc3)c3ccccc23)cc1.O=C(O)C(F)(F)F`, the solubility at 24 h in data set [5] came out at 292 µg/mL; in data set [6], 423 µg/mL; in data set [7], 275 µg/mL.
For `COc1ccc(S(=O)(=O)N(CC(N)=O)c2ccc(N(CC(N)=O)S(=O)(=O)c3ccc(NC(=O)[C@H](N)C(C)C)cc3)c3ccccc23)cc1`, the CC50 at 24 h in data set [1] is more than 100 µM. Moreover, the K in data set [2] is 810 nM. Besides, the “fold change (FC)” value in data set [3] is “<=0.5”.
The like results for `COc1ccc(S(=O)(=O)N(CC(N)=O)c2ccc(N(CC(N)=O)S(=O)(=O)c3ccc(NC(=O)[C@@H](N)Cc4ccccc4)cc3)c3ccccc23)cc1` were, in that order, more than 100 µM, 820 nM and “<=0.5”.
Regarding `COc1ccc(S(=O)(=O)N(CC(N)=O)c2ccc(N(CC(N)=O)S(=O)(=O)c3ccc(NC(=O)[C@H]4CCN4)cc3)c3ccccc23)cc1.Cl`, the solubility at 24 h worked out at 484 µg/mL in data set [5], 1170 µg/mL in data set [6] and 283 µg/mL in data set [7].
For `COc1ccc(S(=O)(=O)N(CC(N)=O)c2ccc(N(CC(N)=O)S(=O)(=O)c3ccc(NC(=O)[C@@H]4CCN4)cc3)c3ccccc23)cc1`, in data set [1], the CC50 at 24 h was more than 100 µM. For the same compound, the K in data set [2] is 650 nM. The “fold change (FC)” value in data set [3] is listed as “<=0.5”.
The like results for `COc1ccc(S(=O)(=O)N(CC(N)=O)c2ccc(N(CC(N)=O)S(=O)(=O)c3ccc(NC(=O)CCN)cc3)c3ccccc23)cc1` were, in that order, more than 100 µM, 440 nM and “<=0.5”.
On the same counts, the results for `COc1ccc(S(=O)(=O)N(CC(N)=O)c2ccc(N(CC(N)=O)S(=O)(=O)c3ccc(NC(=O)[C@@H](N)CSC)cc3)c3ccccc23)cc1` are more than 100 µM, 440 nM and “<=0.5”.
Turning to `COc1ccc(S(=O)(=O)N(CC(N)=O)c2ccc(N(CC(N)=O)S(=O)(=O)c3ccc(NC(=O)[C@H]4CCNC4)cc3)c3ccccc23)cc1`, the result in data set [4] was Active. The CC50 at 24 h in data set [1] was more than 100 µM. The K in data set [2] turned out to be 250 nM. Also, the “fold change (FC)” value in data set [3] is on record as “<=0.5”.
For `COc1ccc(S(=O)(=O)N(CC(N)=O)c2ccc(N(CC(N)=O)S(=O)(=O)c3ccc(NC(=O)[C@H](C)N)cc3)c3ccccc23)cc1`, the result in data set [4] was Active. The CC50 at 24 h in data set [1] is more than 100 µM. Moreover, the K in data set [2] was found to be 240 nM. Besides, the “fold change (FC)” value in data set [3] is “<=0.5”.
The like results for `COc1ccc(S(=O)(=O)N(CC(N)=O)c2ccc(N(CC(N)=O)S(=O)(=O)c3ccc(NC(=O)C4CCN4)cc3)c3ccccc23)cc1` (centres undefined) were, in that order, “Active”, more than 100 µM, 260 nM and “<=0.5”.
